Measurements reported in publication PMC7765409 (International Journal of Molecular Sciences, 2020).
Like-named read-outs stand apart in the source and are kept apart here.

Experiments:
[1] = test system: oleic acid-induced lipid droplet accumulation in hiPSC-Hep; experiment: oleic acid-induced lipid droplet accumulation in hiPSC-Hep; type: cell-based, human; conditions: exogenous oleic acid
Description: (§1) A monolayer of hiPSC-Hep, with hepatocyte-like morphology, gene expression and function, was used as a cell model for induction of steatosis and high-content analysis to detect neutral lipid droplet accumulation and inhibition. […] Incubation of the cells with a saturated fluorescently labeled fatty acid analog confirmed localization into neutral lipid vacuoles (Supplementary Figure S1C–F).

[2] = test system: palmitic acid-induced lipid accumulation in hiPSC-Hep; experiment: palmitic acid-induced lipid accumulation in hiPSC-Hep; type: cell-based, human; conditions: exogenous palmitic acid
Description: as §1

FXR target genes = experiment: transcriptomic (RNA-seq) analysis of OCA pre-incubated TG/FA-treated hiPSC-Hep; type: cell-based, human; conditions: TG/FA+OCA vs TG/FA
Description: The phenotypic assay was measured and quantified by BODIPY 493/503-stained neutral lipid droplets multiplexed with Hoechst dye to detect viable cell count, as shown by the process in Supplementary Figure S2. Obeticholic acid (OCA), a clinically advanced therapeutic and farnesoid X receptor (FXR) agonist evaluated in phase III trials for the treatment of NASH [40], was used as an inhibitor control of lipid accumulation (Figure 1A). […] Our results are in accordance with therapeutic plasma concentrations of OCA (0.290 µM) and with studies performed in a human liver in vitro system (0.5 µM). […] FXR target genes, including fibroblast growth factor 19 (FGF19), solute carrier family 51 subunit Beta (SLC51B), cytochrome P450 7A1 (CYP7A1) and perilipin 1 (PLIN1) are regulated by OCA under our treatment conditions.
Z’ = 1 − (3 SD of sample group + 3 SD of negative control)/(mean of sample group−mean of negative control). FA/TG-treated wells were defined as general sample group and BSA-treated wells were defined as negative controls for calculating Z’-factor. In our assay, the Z’ criteria were as follows: Z’ = 0.5–1.0 corresponds to an excellent assay; Z’ = 0–0.5 corresponds to a suboptimal assay; Z’ < 0 corresponds to an unsuccessful assay. Percent inhibition of lipid accumulation was calculated based on the positive (BSA-treated) and negative (FA/TG-treated) controls on each plate: % inhibition = 100 * [(compound value–AVEneg)/(AVEpos–AVEneg)]. RNA-seq data were analyzed by iPathwayGuide (Advaita Bioinformatics: http://www.advaitabio.com/ipathwayguide.html) as described in [35]. Differences between two groups were analyzed using Student’s t-tests. Fold-change expression values obtained from RT-qPCR were analyzed by one-way analysis of variance (ANOVA) followed by post hoc comparisons of group means with the Tukey’s multiple comparison tests at an overall confidence level of 95% using Prism software (GraphPad).

[3] = parameters: method as in PMID 29226620; conditions: cited from earlier work
[4] = test system: lipid droplet accumulation in TG/FA-treated hiPSC-Hep; experiment: hiPSC-Hep ER-stress (TG/FA) induced lipid droplet accumulation high-content assay, integrated spot signal (BODIPY 493/503); type: cell-based, human; conditions: for IC50: Homo sapiens, cells pre-treated 24 h and co-treated additional 18 h with TG/FA
Description: Cryopreserved hiPSC-derived hepatocytes (iCell Hepatocytes 2.0; Cellular Dynamics International Madison, WI) plated at a density of 36 K/well in 384-well on collagen I coated Corning Biocoat 384-well plates (BD Biosciences, 101306), were cultured to promote hepatic differentiation and maturation into hepatic-like cells as previously described. Hepatocytes were plated according to the manufacturer’s protocol in a volume of 50 µL/well using BioTek^TM Microflo^TM select dispenser (#7170011, BioTek Instruments) for high-throughput and high-content analysis assay (HT/HCA) drug discovery. After plating cells were cultured according to vendor specifications in a cell culture incubator at 37 °C, 5% CO2 for 3–4 h. Then, 40 µL spent medium was aspirated using multi-channel automated pipette handling system (Integra ViaFlo 96/384) and replaced with 40 µL (80% exchange) of fresh plating medium. Approximately 24 h post-plating 80% of medium was replaced every day thereafter. At day 5 of differentiation, 40 µL/well spent medium was replaced with maintenance medium (MM) consisting of William’s E medium (Thermo Fisher Scientific) supplemented with 0.1 µM dexamethasone and hepatocyte maintenance supplement pack (Thermo Fisher Scientific) for an additional 2–3 days before HCA. The overview of automated HT system for hiPSC-derived hepatocytes differentiation, staining and image analysis for phenotypic screening is depicted in Figure S2. Primary screening hit confirmation and dose response studies were performed on different batches of hiPSC-derived hepatocytes.
To induce hepatic triglycerides (TAG) accumulation, before staining, cells were treated with 20 μL of 2× FA mixture, consisting of different proportions of oleic acid (OA-BSA, 25 µM, Sigma, #O3008), palmitic acid (PA-BSA, 200 µM, Agilent Technologies, #102720100) and thapsigargin (TG, 1 µM, Abcam, #120286) with a total volume of 40 μL/well. The TG/FA mixture was dispensed with BioTek^TM Microflo^TM select dispenser (#7170011, BioTek Instruments) and incubated for 18 h. Next, to label TAG accumulation stored into cytoplasmic lipid droplets, upon treatment, living cells were washed two times with warm Dulbecco’s Phosphate-Buffered Saline 1X (PBS, Corning, #21-031CV) with a handheld 384-channel electronic pipette device and then incubated for 15 min with a lipophilic dye, BODIPY 493/503 (8 ug/mL Life technologies, #D3922-green), in PBS at 37 °C. BODIPY (493/503) has become the standard dye utilized by scientists to study lipid droplets in live cells. After three washes with PBS cells were fixed with 4% paraformaldehyde methanol-free (PFA, Electron Microscopy Science, #15710) in PBS for 15 min at room temperature (RT). Cell health was monitored by Hoechst 33342 (10 ug/mL, Molecular Probe, #H21492) staining in PBS for nuclear count. After TAG staining the 384-assay plates were loaded in an automated confocal microscope with Opera High Content Imaging System (PerkinElmer, Waltham, MA, USA). Dyes were excited and images were captured on the Hoechst 3342 and Alexa Fluor 488 channels and signals were collected with a long pass filter 410 and 505 nm, for nuclei and TAG, respectively, at objective 20× air objective for HCA. To capture enough cells (>600) for the analysis, eight fields per well were imaged. Hoechst 33342 fluorescence was used to identify the nuclear region and cell counts. To assess intracellular fat deposits, BODIPY 493/503 fluorescence intensity was measured inside the cytoplasm region.
For the HCA screen, compounds tested for their inhibitory effects, were used as single dose at a 10 μM final concentration of compound in DMSO in each well (0.1% DMSO) in 20 μL of maintenance medium. Prior to compound addition, 30 µL/well of medium was removed from hiPSC-Hep cells screening plates with ViaFlo ([…]). Pre-spotted 80 nL of 10 mM compound were diluted to 20 μM (0.2% DMSO) in 40 μL of maintenance medium in the source 384-well plate. […]

DGAT2 mRNA = test system: DGAT2 mRNA; parameters: method as in PMID 30254132; conditions: after 4 and 18 h treatment with thapsigargin and free-fatty acids; cited from earlier work

Row | SMILES | inhibition of oleic acid-induced lipid droplet accumulation [1] | inhibition of oleic acid-induced lipid droplet accumulation ([1]; listed as triacsin C) | inhibition of palmitic acid-induced lipid accumulation [2] | CYP7A1 gene regulation (FXR target genes) | FGF19 gene regulation (FXR target genes) | PLIN1 gene regulation (FXR target genes) | SLC51B gene regulation (FXR target genes) | therapeutic plasma concentrations [3] | IC50 ([4]; read-out: half maximal inhibitory concentration (IC50) for reduction of lipid accumulation) | IC50 ([4]; read-out: pIC50 for reduction of lipid accumulation (converted)) | lipid content of lipid droplet-stained cells ([4]; OCA at 20 µM in TG/FA-treated cells vs BSA-treated control) | effect on DGAT2 expression (DGAT2 mRNA)
1 | CCC/C=C/C/C=C/C=C/C=N/NN=O [Triacsin C] | fully inhibits | completely inhibits | did not inhibit | – | – | – | – | – | – | – | – | –
2 | CC[C@H]1[C@@H](O)[C@@H]2[C@H](CC[C@]3(C)[C@@H]([C@H](C)CCC(=O)O)CC[C@@H]23)[C@@]2(C)CC[C@@H](O)C[C@@H]12 [OCA, Obeticholic acid] | – | – | – | downregulation | upregulation | upregulation | downregulation | 0.290 µM | 630 nM | 631 nM | reduced lipid content to control levels | significantly inhibited
